Paper PMC5482218 (Archiv der Pharmazie, 2016)

How the values were obtained:
[1] = test system: L-type calcium channels (LTCC); assay: High-throughput fluorescence Ca2+ flux assay; settings: for Dose-response profile / effect on K+-induced Ca2+ influx: PC12 cells, Fura-2/AM, 50 mM KCl; for IC50: read-out: IC50 for the inhibition of K+-induced Ca2+ influx, PC12 cells loaded with Fura-2/AM, 10 min preincubation, depolarization with 50 mM KCl
[2] = test system: PC12 cells; assay: LDH release cell viability assay, with and without 200 μM H2O2; type: cell-based, rat; settings: for Attenuation of H2O2-induced LDH release: 200 μM H2O2 24 h, p<0.05; for LDH release by compound alone (inherent toxicity): absence of H2O2, 100 μM, PC12 cells
[3] = test system: PC12 cells

Q: How did the “Dose-response profile / effect on K+-induced Ca2+ influx” value (shortened to “Dose-response profile / effect”) [1] turn out when `O=C1C2C3CC4C2C(=O)C2C1C3C42` (stereo not drawn) [Compound 4, Pentacyclo[5.4.0.0^2,6.0^3,10.0^5,9]undecane-8,11-dione] was run?
A: Its value is “no activity”.

Q: What does the source list for `OC12C3C4CC5C6C4C1C6C(C53)N2CCc1ccccc1` (stereo not drawn) [Compound 8b, N-Phenylethyl-3-hydroxy-4-azahexacyclo[5.4.1.0^2,6.0^3,10 0^5,9.0^8,11]dodecane]?
A: Attenuation of H2O2-induced LDH release ([2]; compound at 1 and 10 μM): significant attenuation of LDH release; LDH release by compound alone (inherent toxicity) [2]: some LDH release; IC50 [1]: 8 µM; Protection in the cell viability assay (Trypan blue) ([3]; 200 μM H2O2, concentration not stated): able to offer protection; Change in cell viability by compound alone (Trypan blue exclusion) ([3]; absence of H2O2, 10 and 100 μM, versus untreated cells): slight decrease in cell viability

Q: For `c1cc(CN2C3CCC4CC5CCC2C5C43)ccn1` (stereo not drawn) [Compound 14f, N-(Pyridin-4-ylmethyl)-3,11-azatricyclo[6.3.0.0^2,6]-undecane], which IC50 [1] is on record?
A: Its IC50 is 5 µM.

Q: `O=C1CCC2CC3CCC(=O)C3C12` (stereo not drawn) [Compound 10, Tricyclo[6.3.0.0^2,6]undecane-3,11-dione] was tested. Which “Dose-response profile / effect” value [1] did it give?
A: Its value is “slight potentiating effect but no antagonistic activity”.

Q: With `c1ccc(CNC23OC4C5C6CC(C7C6C4C72)C53)cc1` (stereo not drawn) [Compound 7a, 8-benzylamino-8,11-oxapentacyclo[5.4.0.0^2,6.0^3,10.0^5,9]undecane] as the compound, how does the “Attenuation of H2O2-induced LDH release” value ([2]; compound at 1, 10 and 100 μM) read?
A: Its value is “significant attenuation of LDH release”.

Q: What about the “LDH release by compound alone (inherent toxicity)” value [2] of the same compound?
A: The value was “some LDH release”.

Q: And the IC50 [1]?
A: Its IC50 is 86 µM.

Q: What about the “Reduction of H2O2-induced toxicity (Trypan blue exclusion)” value ([3]; 200 μM H2O2, compound at 1, 10 and 100 μM, p<0.05) of the same compound?
A: The value was “significant reduction”.

Q: How did the IC50 [1] turn out when `CCCCCCCN1C2C3C4CC5C6C4C2C6C1(O)C53` (stereo not drawn) [Compound 8c, N-Heptyl-3-hydroxy-4-azahexacyclo[5.4.1.0^2,6.0^3,10.0^5,9. 0^8,11]dodecane] was run?
A: The IC50 was 7 µM.

Q: How did the IC50 [1] turn out when `OC12C3C4CC5C6C4C1C6C(C53)N2Cc1ccccc1` (stereo not drawn) [Compound 8a, N-Benzyl-3-hydroxy-4-azahexacyclo[5.4.1.0^2,6.0^3,10.0^5,9. 0^8,11]dodecane] was run?
A: Its IC50 is 35 µM.

Q: “N-Benzyl-3,11-azatricyclo[6.3.0.0^2,6]undecane [Compound 14a]” was tested. Which IC50 [1] did it give?
A: The IC50 was 74 µM.

Q: For `COc1cccc(CN2C3CCC4CC5CCC2C5C43)c1` (stereo not drawn) [Compound 14e, N-(3-Methoxybenzyl)-3,11-azatricyclo[6.3.0.0^2,6]undecane], which IC50 [1] is on record?
A: The IC50 was 11 µM.

Q: “N-Cyclohexylmethyl-3,11-azatricyclo[6.3.0.0^2,6]undecane [Compound 14d]” was tested. Which IC50 [1] did it give?
A: Its IC50 is 68 µM.

Q: “3-Hydroxy-3,11-oxatricyclo[6.3.0.0^2,6]undecane [Compound 11]” was tested. Which “Dose-response profile / effect” value [1] did it give?
A: The value was “potentiating effect”.
